Data from patent publication US9422293B2 (priority 2006, dated 2016).
pIC50: −log10 of the molar value. Structures can show the parent of a compound that is named as a salt. Where two headings read alike, the source gives them in different places.

Biological target: rat TRPV1 (Rattus norvegicus (Rat), UniProt O35433)
Settings: read-out: Rat IC50

Sequence of rat TRPV1 (O35433 whole entry): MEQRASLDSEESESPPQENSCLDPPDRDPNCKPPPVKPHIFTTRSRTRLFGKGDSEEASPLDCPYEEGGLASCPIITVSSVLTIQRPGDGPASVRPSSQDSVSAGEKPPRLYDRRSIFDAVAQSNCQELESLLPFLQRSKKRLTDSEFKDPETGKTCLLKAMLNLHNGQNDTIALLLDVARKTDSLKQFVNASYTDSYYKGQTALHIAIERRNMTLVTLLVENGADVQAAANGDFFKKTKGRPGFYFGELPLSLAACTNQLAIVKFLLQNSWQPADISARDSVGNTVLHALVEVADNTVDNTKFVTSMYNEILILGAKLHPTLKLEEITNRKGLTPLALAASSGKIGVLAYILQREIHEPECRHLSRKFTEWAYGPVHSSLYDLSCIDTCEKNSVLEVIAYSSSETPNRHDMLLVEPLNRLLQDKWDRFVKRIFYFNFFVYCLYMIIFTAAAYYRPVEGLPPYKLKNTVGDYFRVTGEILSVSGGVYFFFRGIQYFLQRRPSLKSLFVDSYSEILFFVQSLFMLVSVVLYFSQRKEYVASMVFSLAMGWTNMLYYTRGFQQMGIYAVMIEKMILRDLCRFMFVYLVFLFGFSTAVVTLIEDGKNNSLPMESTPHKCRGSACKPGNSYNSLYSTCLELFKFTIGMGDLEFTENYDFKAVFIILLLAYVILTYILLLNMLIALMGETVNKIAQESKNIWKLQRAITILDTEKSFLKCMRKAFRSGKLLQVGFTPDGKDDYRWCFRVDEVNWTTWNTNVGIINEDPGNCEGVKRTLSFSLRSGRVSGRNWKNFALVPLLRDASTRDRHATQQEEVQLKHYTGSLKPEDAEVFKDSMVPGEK

Structure (SMILES): FC(F)(F)c1ccc(Nc2ncnc3c2CCN(c2cnc4ccccc4n2)CC3)cc1 [Example 29, (7-Quinoxalin-2-yl-6,7,8,9-tetrahydro-5H-pyrimido[4,5-d]azepin-4-yl)-(4-trifluoromethyl-phenyl)-amine]
- pIC50: 6.47

Structure (SMILES): FC(F)(F)c1ccc(Nc2ncnc3c2CCN(c2ncccc2Cl)CC3)cc1 [Example 30, [7-(3-Chloro-pyridin-2-yl)-6,7,8,9-tetrahydro-5H-pyrimido[4,5-d]azepin-4-yl]-(4-trifluoromethyl-phenyl)-amine]
- pIC50: 5.89

Structure (SMILES): Cc1nc2ccccc2nc1N1CCc2ncnc(Nc3ccc(C(C)(C)C)cc3)c2CC1 [Example 32, (4-tert-Butyl-phenyl)-[7-(3-methyl-quinoxalin-2-yl)-6,7,8,9-tetrahydro-5H-pyrimido[4,5-d]azepin-4-yl]-amine]
- pIC50: 7.89

Structure (SMILES): Cc1nc2ccccc2nc1N1CCc2nc(C(C)C)nc(Nc3ccc(C(C)(C)C)cc3)c2CC1 [Example 33, (4-tert-Butyl-phenyl)-[2-isopropyl-7-(3-methyl-quinoxalin-2-yl)-6,7,8,9-tetrahydro-5H-pyrimido[4,5-d]azepin-4-yl]-amine]
- pIC50: 6.96

Structure (SMILES): Cc1nc2ccccc2nc1N1CCc2nc(C(C)C)nc(Nc3ccc(C(F)(F)F)cc3)c2CC1 [Example 34, [2-Isopropyl-7-(3-methyl-quinoxalin-2-yl)-6,7,8,9-tetrahydro-5H-pyrimido-[4,5-d]azepin-4-yl]-(4-trifluoromethyl-phenyl)-amine]
- pIC50: 6.44

Structure (SMILES): CC(C)c1nc2c(c(Nc3ccc(C(F)(F)F)cc3)n1)CCN(c1nc3ccccc3nc1C(F)(F)F)CC2 [Example 35, [2-Isopropyl-7-(3-trifluoromethyl-quinoxalin-2-yl)-6,7,8,9-tetrahydro-5H-pyrimido[4,5-d]azepin-4-yl]-(4-trifluoromethyl-phenyl)-amine]
- pIC50: 5.62

Structure (SMILES): CC(C)c1nc2c(c(Nc3ccc(C(F)(F)F)cc3)n1)CCN(c1ncccc1S(C)(=O)=O)CC2 [Example 36, [2-Isopropyl-7-(3-methanesulfonyl-pyridin-2-yl)-6,7,8,9-tetrahydro-5H-pyrimido[4,5-d]azepin-4-yl]-(4-trifluoromethyl-phenyl)-amine]
- pIC50: 6.43

Structure (SMILES): CC(C)(C)c1ccc(Nc2ncnc3c2CCN(c2nncc4ccccc24)CC3)cc1 [Example 37, (4-tert-Butyl-phenyl)-(7-phthalazin-1-yl-6,7,8,9-tetrahydro-5H-pyrimido-[4,5-d]azepin-4-yl)-amine]
- pIC50: 6.82

Structure (SMILES): Cc1cncnc1N1CCc2ncnc(Nc3ccc(C(C)(C)C)cc3)c2CC1 [Example 38, (4-tert-Butyl-phenyl)-[7-(5-methyl-pyrimidin-4-yl)-6,7,8,9-tetrahydro-5H-pyrimido[4,5-d]azepin-4-yl]-amine]
- pIC50: 5.85

Structure (SMILES): FC(F)(F)c1ccc(Nc2nc(N3CCCCC3)nc3c2CCN(c2ncccc2C(F)(F)F)CC3)cc1 [Example 39, [2-Piperidin-1-yl-7-(3-trifluoromethyl-pyridin-2-yl)-6,7,8,9-tetrahydro-5H-pyrimido[4,5-d]azepin-4-yl]-(4-trifluoromethyl-phenyl)-amine]
- pIC50: 7.74

Structure (SMILES): FC(F)(F)c1ccc(Nc2nc(N3CCCCC3)nc3c2CCN(c2ncccc2C(F)(F)F)CC3)cc1 [Example 39A, [2-Piperidin-1-yl-7-(3-trifluoromethyl-pyridin-2-yl)-6,7,8,9-tetrahydro-5H-pyrimido[4,5-d]azepin-4-yl]-(4-trifluoromethyl-phenyl)-amine hydrochloride salt]
- pIC50 (hydrochloride salt): 7.64

Structure (SMILES): FC(F)(F)c1ccc(Nc2nc(N3CCOCC3)nc3c2CCN(c2ncccc2C(F)(F)F)CC3)nc1 [Example 41, [2-Morpholin-4-yl-7-(3-trifluoromethyl-pyridin-2-yl)-6,7,8,9-tetrahydro-5H-pyrimido[4,5-d]azepin-4-yl]-(5-trifluoromethyl-pyridin-2-yl)-amine]
- pIC50: 7.31

Structure (SMILES): CC(C)(C)c1ccc(Nc2nc(N3CCCCC3)nc3c2CCN(c2ncccc2C(F)(F)F)CC3)cc1 [Example 42, (4-tert-Butyl-phenyl)-[2-piperidin-1-yl-7-(3-trifluoromethyl-pyridin-2-yl)-6,7,8,9-tetrahydro-5H-pyrimido[4,5-d]azepin-4-yl]-amine]
- pIC50: 7.31

Structure (SMILES): CN(C)c1nc2c(c(Nc3ccc(C(F)(F)F)cn3)n1)CCN(c1ncccc1C(F)(F)F)CC2 [Example 44, N^2,N^2-Dimethyl-N^4-(5-trifluoromethyl-pyridin-2-yl)-7-(3-trifluoro-methyl-pyridin-2-yl)-6,7,8,9-tetrahydro-5H-pyrimido[4,5-d]azepine-2,4-diamine]
- pIC50: 6.60

Structure (SMILES): CN(C)c1nc2c(c(Nc3ccc(C(F)(F)F)c(Cl)c3)n1)CCN(c1ncccc1C(F)(F)F)CC2 [Example 45, N^4-(3-Chloro-4-trifluoromethyl-phenyl)-N^2,N^2-dimethyl-7-(3-trifluoro-methyl-pyridin-2-yl)-6,7,8,9-tetrahydro-5H-pyrimido[4,5-d]azepine-2,4-diamine]
- pIC50: 7.05

Structure (SMILES): CC(C)(C)c1ccc(Nc2nc(N3CCOCC3)nc3c2CCN(c2ncccc2C(F)(F)F)CC3)cc1 [Example 47, (4-tert-Butyl-phenyl)-[2-morpholin-4-yl-7-(3-trifluoromethyl-pyridin-2-yl)-6,7,8,9-tetrahydro-5H-pyrimido[4,5-d]azepin-4-yl]-amine]
- pIC50: 7.64

Structure (SMILES): CN(C)c1nc2c(c(Nc3ccc(C(C)(C)C)cc3)n1)CCN(c1ncccc1C(F)(F)F)CC2 [Example 48, N^4-(4-tert-Butyl-phenyl)-N^2,N^2-dimethyl-7-(3-trifluoromethyl-pyridin-2-yl)-6,7,8,9-tetrahydro-5H-pyrimido[4,5-d]azepine-2,4-diamine]
- pIC50: 7.13

Structure (SMILES): CN(C)c1nc2c(c(Nc3ccc(C(F)(F)F)cc3)n1)CCN(c1ncccc1C(F)(F)F)CC2 [Example 49, N^2,N^2-Dimethyl-N^4-(4-trifluoromethyl-phenyl)-7-(3-trifluoromethyl-pyridin-2-yl)-6,7,8,9-tetrahydro-5H-pyrimido[4,5-d]azepine-2,4-diamine]
- pIC50: 6.62

Structure (SMILES): CN(C)c1nc2c(c(Nc3ccc(Cl)cc3)n1)CCN(c1ncccc1C(F)(F)F)CC2 [Example 50B, N^4-(4-Chloro-phenyl)-N^2,N^2-dimethyl-7-(3-trifluoromethyl-pyridin-2-yl)-6,7,8,9-tetrahydro-5H-pyrimido[4,5-d]azepine-2,4-diamine trifluoroacetic acid salt]
- pIC50: 6.04

Structure (SMILES): Nc1nc2c(c(Nc3ccc(C(F)(F)F)cc3)n1)CCN(c1ncccc1C(F)(F)F)CC2 [Example 51, N^4-(4-Trifluoromethyl-phenyl)-7-(3-trifluoromethyl-pyridin-2-yl)-6,7,8,9-tetrahydro-5H-pyrimido[4,5-d]azepine-2,4-diamine]
- pIC50: 5.92
